From patent US20110052556A1, “PHARMACEUTICAL COMPOSITION COMPRISING RACETAM AND CARNITINE AND PROCESS FOR ITS PREPARATION” (Biolab Sanus Farmaceutical Ltda, priority 2008, published 2011) come the findings set out here.

The test relates to mitochondria isolated from liver of rat. The test can be described thus: Protection against mitochondrial swelling induced by statins. In kind it is biochemical. Here is the method:
Mitochondria were isolated from adult rat liver (MFR) using the technique of differential centrifugation, according to […] and HOGEBOOM (1951), after a fast of 12 h. The liver, removed after death of the animal by cerebral concussion, was wash in a 250 mM saccharose solution containing buffer 10 mM HEPES pH 7.2 and 0.5 mM EGTA, and chopped with a scissors and homogenized in a Potter-Elvehjem homogeneizer. The material was centrifuged at 2500×g for 10 minutes. The resulting supernatant was centrifuged for 10 minutes at 8000×g. The supernatant was discarded and the sediment resuspended in 250 mM saccharose, 5 mM HEPES pH 7.2, 0.3 mM EGTA, and centrifuged as the previous step. […]
Mitochondrial swelling was calculated based on the decrease in tubidity of a mitochondrial suspension measured at 520 nm in a Hitachi spectrometer model U-3000 for a time period between 0 and 800 seconds.
This procedure of evaluation of mitochondria modification is based on fact that the mitochondria suspensions are turbid and scatter incident light. […] A spectrofotometric measurement of the absorbance reduction at 540 nm (Ca^2+-dependent NAD(P)^+-induced alterations in membrane permeability of the mitochondria. Integration of Mitochondrial Function, Ed. J. Lemasters, Plenum, New York, pp. 535-542) is made in a spectrophotometer connected to a potentiometric recorder. […]

As to `C[N+](C)(C)C[C@H](O)CC(=O)[O-]` [L-carnitine], the “smallest dose that presented some protective effect on mitochondrial swelling induced by statins” value (swelling induced by Simvastatin, Pravastatin and Lovastatin) came to 0.5 µg/mL.

Regarding `COC1=C(OC)C(=O)C(C/C=C(\C)CC/C=C(\C)CC/C=C(\C)CC/C=C(\C)CC/C=C(\C)CC/C=C(\C)CC/C=C(\C)CC/C=C(\C)CC/C=C(\C)CCC=C(C)C)=C(C)C1=O` [coenzyme Q10, 2,3,dimethoxyl-5-methyl-6-decaprenil-1,4-benzoquinone], where the note is “MFR 0.5 mg/ml, Piracar 0.25/0.65 μg/ml, CoQ 5 μg/ml, FIG. 5”, the “protection against mitochondria swelling induced by Simvastatin” value is “effect of the addition of coenzyme Q10 in the protection against mitochondria swelling”.
